# According to patent US11951109B2, “EZH2 inhibitors for treating lymphoma” (Epizyme, Inc., priority 2015, dated 2024):
# Tests used:
# [1] = system: DOHH2; assay: Combination of EPZ-6438 and other therapeutic agents (4+3 model), DOHH2; assay type: cell-based; settings: for combination effect with EPZ-6438, DOHH2: WT EZH2 GCB; for combination effect with EPZ-6438, DOHH2 (WT EZH2 GC): Table 3
# [2] = system: SU-DHL-10; assay: Combination of EPZ-6438 and other therapeutic agents (4+3 model), SU-DHL-10; settings: for combination effect with EPZ-6438, SU-DHL-10: Mutant EZH2 GCB; for combination effect with EPZ-6438, SU-DHL-10 (mutant EZH2 GC): Table 3
# [3] = system: SUDHL5; assay: Combination of EPZ-6438 and other therapeutic agents (4+3 model), SUDHL5; settings: for combination effect with EPZ-6438, SUDHL5: WT EZH2 GCB
# [4] = system: WSU-DLCL2; assay: Combination of EPZ-6438 and other therapeutic agents (4+3 model), WSU-DLCL2; settings: for combination effect with EPZ-6438, WSU-DLCL2: Mutant EZH2 GCB, EPZ-6438 4 days then co-treatment 3 days (4+3 model); for combination effect with EPZ-6438, WSU-DLCL2 (mutant EZH2 GC): Table 3, 4+3 model
# [5] = system: RC-K8; assay: Combination of EPZ-6438 and other therapeutic agents (4+3 model), RC-K8; settings: WT EXH2 ABC
# [6] = system: TMD8; assay: Combination of EPZ-6438 and other therapeutic agents (4+3 model), TMD8; settings: WT EXH2 ABC
# [7] = system: OCI-LY7; assay: Combination of EPZ-6438 and other therapeutic agents (4+3 model), OCI-LY7; settings: WT EZH2 GCB
# [8] = system: SU-DHL-6; assay: Combination of EPZ-6438 and other therapeutic agents (4+3 model), SU-DHL-6; settings: for combination effect with EPZ-6438, SU-DHL-6: Mutant EZH2 GCB; for combination effect with EPZ-6438, SU-DHL-6 (mutant EZH2 GC): Table 3
# [9] = system: OCI-LY19; assay: Combination of EPZ-6438 and other therapeutic agents (4+3 model), OCI-LY19; settings: for combination effect with EPZ-6438, OCI-LY19: WT EZH2 GCB
# [10] = system: OCI-LY3; assay: Combination of EPZ-6438 and other therapeutic agents (4+3 model), OCI-LY3; settings: WT EXH2 ABC
# [11] = system: Farage; assay: Combination of EPZ-6438 and other therapeutic agents (4+3 model), Farage; settings: WT EZH2 GCB
# [12] = system: Toledo; settings: Table 3; 4+3 model
# [13] = system: KARPAS-422; assay: Combination of EPZ-6438 and other therapeutic agents (4+3 model), KARPAS-422; settings: Mutant EZH2 GCB
# [14] = system: SUDHL2; assay: Combination of EPZ-6438 and other therapeutic agents (4+3 model), SUDHL2; settings: WT EXH2 ABC
# [15] = system: SUDHL6 tumor; assay: EPZ-6438 with CHOP chemotherapy in vivo, SUDHL6 tumor (FIG. 3B, 3C)
# [16] = clinical; settings: human, in vivo
# From the text: (§1) The phase 1 trial enrolled patients with relapsed/refractory solid tumors and B cell lymphoma. The study employed a standard 3+3 dose escalation design with two planned dose expansion cohorts and clinical pharmacology sub-studies. The primary endpoint was determination of a recommended phase 2 dose or MTD with standard secondary endpoints. The results of the study are also presented in WO 2015195848 and figures therein, the content of which is hereby incorporated by reference in its entirety.
# […]. […] While a decrease in AUC between the first dose and day 15 was observed, there was no further reduction in systemic exposure beyond that time, as evidenced by pre-dose Ctrough levels in the right panel.
# [17] = system: Non-Hodgkin's lymphoma; assay: Phase 1 clinical study of EPZ-6438: tumor response; assay type: in vivo, human
# From the text: as §1
# The patients enrolled included 19 patients with Non-Hodgkin's lymphoma (NHL) of which 13 patients have DLBCL. Cell-of origin testing was intended for all NHL patients; however, 3 DLBCL patients had insufficient tissue to permit determination of germinal center vs. non-germinal center status. EZH2 mutation testing was centrally performed for 14 NHL patients by the Cobas® test (Roche). One lymphoma patient whose tumor has been treated to date carries an EZH2 mutation. For the solid tumor patients, attention has been given to recruiting patients with INI1-deficient tumors due to the oncogenic role of EZH2 in these tumors.
# NHL patients on study were heavily pre-treated with 85% having received three or more prior systemic therapies and nearly half receiving four or more prior regimens.
# [18] = system: KARPAS 422 tumor; assay: Single agent activity of EPZ-6438 in KARPAS 422 tumor (FIG. 2A); assay type: in vivo; settings: mutant EZH2 (Y646N)
# [19] = system: H3K27 trimethylation; assay: Phase 1 clinical study: tri-methyl H3K27 levels in skin biopsy by immunohistochemistry; assay type: in vivo, human; settings: for reduction from baseline in PD H3K27 trimethylation in skin biopsy: wild type EZH2
# From the text: Pre- and post-dose skin biopsies were collected to assess pharmacodynamics in a surrogate tissue through the measurement of tri-methyl H3K27 levels by immunohistochemistry.
# [20] = system: WSU-DLCL2 tumor; assay: EPZ-6438 with CHOP chemotherapy in vivo, WSU-DLCL2 tumor (FIG. 3A)
# [21] = human, in vivo
# From the text: as §1
# […]. One patient discontinued drug for grade 4 neutropenia. Both of these patients were treated in the 800 mg expansion cohort. • Seven patients had dose interruptions. Of these, 6 were from a reversible toxicity and resumed study agent at prior dose without further issue.
# [22] = system: HT; assay: Combination of EPZ-6438 and other therapeutic agents (4+3 model), HT; settings: WT EZH2 GCB
# [23] = patient with primary mediastinal B-cell lymphoma, wild type EZH2, 200 mg orally twice a day
smiles,measurement,setting,value
C[C@@H]1C[C@H]2[C@@H]3CCC4=CC(=O)C=C[C@]4(C)[C@@]3(F)[C@@H](O)C[C@]2(C)[C@@]1(O)C(=O)CO [Dexamethasone],"combination effect with EPZ-6438, DOHH2",[1],S
same,"combination effect with EPZ-6438, SU-DHL-10",[2],S
same,"combination effect with EPZ-6438, SUDHL5",[3],S
same,"combination effect with EPZ-6438, WSU-DLCL2",[4],S
same,"combination effect with EPZ-6438, RC-K8",[5],S
same,"combination effect with EPZ-6438, TMD8",[6],S
same,"combination effect with EPZ-6438, OCI-LY7",[7],S
same,"combination effect with EPZ-6438, SU-DHL-6",[8],S
same,"combination effect with EPZ-6438, OCI-LY19",[9]; 4+3 model,S
same,"combination effect with EPZ-6438, OCI-LY3",[10],S
same,"combination effect with EPZ-6438, Farage",[11],S
same,"combination effect with EPZ-6438, Toledo (WT EZH2 ABC)",[12],No effect
same,"combination effect with EPZ-6438, KARPAS-422",[13],S
same,"combination effect with EPZ-6438, SUDHL2",[14],S
COc1cccc2c1C(=O)c1c(O)c3c(c(O)c1C2=O)C[C@@](O)(C(=O)CO)C[C@@H]3O[C@H]1C[C@H](N)[C@H](O)[C@H](C)O1 [Doxorubicin],"combination effect with EPZ-6438, DOHH2 (WT EZH2 GC)",[1],No effect
same,"combination effect with EPZ-6438, SU-DHL-10 (mutant EZH2 GC)",[2],Additive
same,"combination effect with EPZ-6438, WSU-DLCL2 (mutant EZH2 GC)",[4],Synergy
same,"combination effect with EPZ-6438, SU-DHL-6 (mutant EZH2 GC)",[8],Additive
same,"combination effect with EPZ-6438, Toledo (WT EZH2 ABC)",[12],No effect
"CCN(c1cc(-c2ccc(CN3CCOCC3)cc2)cc(C(=O)NCc2c(C)cc(C)[nH]c2=O)c1C)C1CCOCC1 [EPZ-6438, tazemetostat]",effect of combination with CHOP chemotherapy on mean tumor volume and survival,[15],synergy
same,PK at steady state throughout the entire dosing range,[16],dose-proportional linear PK
same,absorption,[16],rapid absorption
same,half-life,[16],3 to 5 h
same,objective response,[17]; DLBCL,5 of 9
same,reduction of abdominal mass,"[17]; DLBCL patient with EZH2 mutation, by week 16",52%
same,objective response,[17]; evaluable NHL patients,Nine of 15
same,objective response,[17]; follicular lymphoma,3 of 5
same,response,"[17]; one patient with marginal zone nodular lymphoma, approaching one year on therapy",partial response
same,FDG uptake,[17]; [23],reduction
same,reduction in lesion size via computed tomography (CT),[17]; [23],73%
same,reduction in lesion size via computed tomography (CT),"[17]; patient with transformed DLBCL, wild type EZH2, 100 mg orally twice a day",66%
same,"tumor growth, single agent",[18],growth inhibition
same,reduction from baseline in PD H3K27 trimethylation in skin biopsy,"[19]; patient with primary mediastinal B-cell lymphoma, 200 mg orally twice a day",27%
same,reduction from baseline in PD H3K27 trimethylation in skin biopsy,"[19]; patient with transformed DLBCL, 100 mg orally twice a day",21%
same,tri-methyl H3K27 levels across the full thickness of skin,[19]; pre- and post-dose skin biopsies,dose-dependent reduction
same,activity of EPZ-6438 in combination with prednisolone,"[9]; OCI-LY19, FIG. 1B",possesses activity
same,effect of combination with CHOP chemotherapy on mean tumor volume,[20],synergy
same,"Grade 3 or greater adverse events, fraction of patients",[21],a third
same,Grade 3 or greater treatment-related adverse events,[21],5 patients
same,tolerability,[21],well-tolerated
CO[C@H]1C[C@@H]2CC[C@@H](C)[C@@](O)(O2)C(=O)C(=O)N2CCCC[C@H]2C(=O)O[C@H]([C@H](C)C[C@@H]2CC[C@@H](OCCO)[C@H](OC)C2)CC(=O)[C@H](C)/C=C(\C)[C@@H](O)[C@@H](OC)C(=O)[C@H](C)C[C@H](C)/C=C/C=C/C=C/1C [Everolimus],"combination effect with EPZ-6438, SU-DHL-10",[2],S
same,"combination effect with EPZ-6438, SUDHL5",[3],S
same,"combination effect with EPZ-6438, WSU-DLCL2",[4],S
same,"combination effect with EPZ-6438, RC-K8",[5],S
same,"combination effect with EPZ-6438, TMD8",[6],S
same,"combination effect with EPZ-6438, OCI-LY7",[7],S
same,"combination effect with EPZ-6438, HT",[22],S
same,"combination effect with EPZ-6438, SU-DHL-6",[8],S
same,"combination effect with EPZ-6438, OCI-LY3",[10],S
same,"combination effect with EPZ-6438, Farage",[11],S
same,"combination effect with EPZ-6438, KARPAS-422",[13],ADD.
same,"combination effect with EPZ-6438, SUDHL2",[14],S
C=CC(=O)N1CCC[C@@H](n2nc(-c3ccc(Oc4ccccc4)cc3)c3c(N)ncnc32)C1 [Ibrutinib],"combination effect with EPZ-6438, SU-DHL-10",[2],S
same,"combination effect with EPZ-6438, SUDHL5",[3],S
same,"combination effect with EPZ-6438, WSU-DLCL2",[4],S
same,"combination effect with EPZ-6438, RC-K8",[5],ADD.
same,"combination effect with EPZ-6438, TMD8",[6],S
same,"combination effect with EPZ-6438, OCI-LY7",[7],S
same,"combination effect with EPZ-6438, HT",[22],S
same,"combination effect with EPZ-6438, SU-DHL-6",[8],S
same,"combination effect with EPZ-6438, OCI-LY3",[10],ADD.
same,"combination effect with EPZ-6438, Farage",[11],S
same,"combination effect with EPZ-6438, KARPAS-422",[13],S
same,"combination effect with EPZ-6438, SUDHL2",[14],ADD.
C[C@]12C=CC(=O)C=C1CC[C@@H]1[C@@H]2[C@@H](O)C[C@@]2(C)[C@H]1CC[C@]2(O)C(=O)CO [Prednisolone],"combination effect with EPZ-6438, DOHH2 (WT EZH2 GC)",[1],Synergy
same,"combination effect with EPZ-6438, DOHH2",[1],S
same,"combination effect with EPZ-6438, SU-DHL-10",[2],S
same,"combination effect with EPZ-6438, SU-DHL-10 (mutant EZH2 GC)",[2],Synergy
same,"combination effect with EPZ-6438, SU-DHL-5 (WT EZH2 GC)",[3]; Table 3,Synergy
same,"combination effect with EPZ-6438, SUDHL5",[3],S
same,"combination effect with EPZ-6438, WSU-DLCL2",[4],S
same,"combination effect with EPZ-6438, WSU-DLCL2 (mutant EZH2 GC)",[4],Synergy
same,"combination effect with EPZ-6438, RC-K8",[5],S
same,"combination effect with EPZ-6438, TMD8",[6],S
same,"combination effect with EPZ-6438, OCI-LY7",[7],S
same,"combination effect with EPZ-6438, SU-DHL-6",[8],S
same,"combination effect with EPZ-6438, SU-DHL-6 (mutant EZH2 GC)",[8],Synergy
same,"combination effect with EPZ-6438, OCI-LY-19 (WT EZH2 GC)","[9]; Table 3, 4+3 model",Synergy
same,"combination effect with EPZ-6438, OCI-LY19",[9]; 4+3 model,S
same,"combination effect with EPZ-6438, OCI-LY3",[10],S
same,"combination effect with EPZ-6438, Farage",[11],S
same,"combination effect with EPZ-6438, Toledo (WT EZH2 ABC)",[12],No effect
same,"combination effect with EPZ-6438, KARPAS-422",[13],S
same,"combination effect with EPZ-6438, SUDHL2",[14],S
CC[C@]1(O)C[C@H]2CN(CCc3c([nH]c4ccccc34)[C@@](C(=O)OC)(c3cc4c(cc3OC)N(C=O)[C@H]3[C@@](O)(C(=O)OC)[C@H](OC(C)=O)[C@]5(CC)C=CCN6CC[C@]43[C@@H]65)C2)C1 [Vincristine],"combination effect with EPZ-6438, DOHH2 (WT EZH2 GC)",[1],No effect
same,"combination effect with EPZ-6438, SU-DHL-10 (mutant EZH2 GC)",[2],Additive
same,"combination effect with EPZ-6438, WSU-DLCL2 (mutant EZH2 GC)",[4],Additive
same,"combination effect with EPZ-6438, SU-DHL-6 (mutant EZH2 GC)",[8],Additive
same,"combination effect with EPZ-6438, Toledo (WT EZH2 ABC)",[12],No effect
